Measurements published in ChEMBL document CHEMBL5316266, “Ligand-Based Design on the Dog-Bone-Shaped BIBR1532 Pharmacophoric Features and Synthesis of Novel Analogues as Promising Telomerase Inhibitors with In Vitro and In Vivo Evaluations” (J Med Chem, 2023).
In brackets after ≈: the same amount, converted by molar mass.

Experiments:
[1] = biological target: Telomerase reverse transcriptase (Homo sapiens) (UniProt O14746); test: Inhibition of telomerase (unknown origin) by qRT-PCR analysis relative to control; parameters: concentration or dose not given beside the values; details: concentration not given here
Telomerase reverse transcriptase (Homo sapiens), sequence (O14746 whole entry): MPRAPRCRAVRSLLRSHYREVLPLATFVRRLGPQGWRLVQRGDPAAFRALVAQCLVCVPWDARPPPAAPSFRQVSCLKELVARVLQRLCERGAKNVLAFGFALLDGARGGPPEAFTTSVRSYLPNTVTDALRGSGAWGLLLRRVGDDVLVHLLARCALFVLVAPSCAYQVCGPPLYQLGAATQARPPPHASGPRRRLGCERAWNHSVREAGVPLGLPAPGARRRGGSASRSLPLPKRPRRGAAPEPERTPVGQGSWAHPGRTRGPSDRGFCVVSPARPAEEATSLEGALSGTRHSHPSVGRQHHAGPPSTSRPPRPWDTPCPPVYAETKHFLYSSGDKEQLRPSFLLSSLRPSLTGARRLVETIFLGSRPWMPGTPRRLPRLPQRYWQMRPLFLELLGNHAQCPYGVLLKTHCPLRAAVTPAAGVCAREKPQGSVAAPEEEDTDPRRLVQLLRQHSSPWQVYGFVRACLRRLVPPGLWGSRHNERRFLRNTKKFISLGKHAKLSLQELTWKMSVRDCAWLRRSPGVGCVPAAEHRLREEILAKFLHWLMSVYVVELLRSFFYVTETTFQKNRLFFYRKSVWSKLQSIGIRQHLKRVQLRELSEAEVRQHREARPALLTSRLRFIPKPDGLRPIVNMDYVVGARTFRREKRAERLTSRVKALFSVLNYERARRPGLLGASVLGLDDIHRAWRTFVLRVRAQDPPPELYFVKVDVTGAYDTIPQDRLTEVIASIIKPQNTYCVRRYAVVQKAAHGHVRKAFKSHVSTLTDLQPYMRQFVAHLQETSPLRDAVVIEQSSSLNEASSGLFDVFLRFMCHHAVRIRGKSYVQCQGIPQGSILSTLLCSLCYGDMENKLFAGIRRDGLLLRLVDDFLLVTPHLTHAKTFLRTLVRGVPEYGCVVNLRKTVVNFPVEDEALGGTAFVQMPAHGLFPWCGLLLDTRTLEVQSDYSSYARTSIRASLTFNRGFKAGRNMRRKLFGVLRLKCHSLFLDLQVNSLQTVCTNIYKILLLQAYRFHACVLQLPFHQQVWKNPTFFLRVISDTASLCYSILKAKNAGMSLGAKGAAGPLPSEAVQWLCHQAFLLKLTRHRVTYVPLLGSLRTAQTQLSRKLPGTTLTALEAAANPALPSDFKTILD

MCF7 [2] = test: Cytotoxicity against human MCF7 cells assessed as inhibition of cell growth incubated for 72 hrs by MTT assay; format: functional, cell-based; details: MCF7, 72 h
A549 = test: Cytotoxicity against human A549 cells assessed as inhibition of cell growth incubated for 72 hrs by MTT assay; format: functional, cell-based; details: A549, 72 h
Ehrlich [3] = test: Anticancer activity against mouse solid Ehrlich carcinoma cells implanted in Swiss albino mouse assessed as increase in hemoglobin level at 5 mg/kg administered thrice per week for 2 weeks starting from day 7 post tumor implantation by hematological assay (reference value: 4.67 +/- 0.19 g/dl); format: functional
Ehrlich [4] = test: Anticancer activity against mouse solid Ehrlich carcinoma cells implanted in Swiss albino mouse assessed as decrease in serum ALT level at 5 mg/kg administered thrice per week for 2 weeks starting from day 7 post tumor implantation by biochemical assay relative to control; format: functional; parameters: scale not given: the % may be the effect or the level left
Ehrlich [5] = test: (§1) Anticancer activity against mouse solid Ehrlich carcinoma cells implanted in Swiss albino mouse assessed as decrease in serum albumin level at 5 mg/kg administered thrice per week for 2 weeks by biochemical assay tarting from day 7 post tumor implantation by biochemical assay relative to control; format: functional; parameters: scale not given: the % may be the effect or the level left
Ehrlich [6] = test: (§2) Anticancer activity against mouse solid Ehrlich carcinoma cells implanted in Swiss albino mouse assessed as increase in lymphocyte count at 5 mg/kg administered thrice per week for 2 weeks starting from day 7 post tumor implantation by hematological assay (reference value: 35.57 +/- 8.34 %); format: functional
[7] = Toxicity in Swiss albino mouse implanted with mouse solid Ehrlich carcinoma assessed as confluent necrosis in liver at 5 mg/kg administered thrice per week for 2 weeks starting from day 7 post tumor implantation by H and E staining based histopathological analysis; format: organism-based; details: in vivo, 336 h
Ehrlich [8] = test: Anticancer activity against mouse solid Ehrlich carcinoma implanted in Swiss albino mouse assessed as increase in tumor inhibition ratio at 5 mg/kg administered thrice per week for 2 weeks starting from day 7 post tumor implantation relative to control; format: functional; parameters: scale not given: the % may be the effect or the level left
Ehrlich [9] = test: as §1, with “total protein” for “albumin”; format: functional; parameters: scale not given: the % may be the effect or the level left
Ehrlich [10] = test: Anticancer activity against mouse solid Ehrlich carcinoma cells implanted in Swiss albino mouse assessed as necrotic cells at 5 mg/kg administered thrice per week for 2 weeks starting from day 7 post tumor implantation by H and E staining based histopathological analysis relative to control; format: functional
[11] = Toxicity in Swiss albino mouse implanted with mouse solid Ehrlich carcinoma assessed as hydropic degeneration of hepatocytes at 5 mg/kg administered thrice per week for 2 weeks starting from day 7 post tumor implantation by H and E staining based histopathological analysis; format: organism-based; details: in vivo, 336 h
Ehrlich [12] = test: Anticancer activity against mouse solid Ehrlich carcinoma cells implanted in Swiss albino mouse assessed as increase in monocyte count at 5 mg/kg administered thrice per week for 2 weeks starting from day 7 post tumor implantation by hematological assay (reference value: 7.42 +/- 0.52 %); format: functional
Ehrlich [13] = test: as §2, with “RBC” for “lymphocyte”, “count measured per million cells” for “count”, “2.93” for “35.57”, “0.18 10^6/ml)” for “8.34 %)”; format: functional
Ehrlich [14] = test: Anticancer activity against mouse solid Ehrlich carcinoma cells implanted in Swiss albino mouse assessed as decrease in serum AST level at 5 mg/kg administered thrice per week for 2 weeks starting from day 7 post tumor implantation by biochemical assay relative to control; format: functional; parameters: scale not given: the % may be the effect or the level left
[15] = Toxicity in Swiss albino mouse implanted with mouse solid Ehrlich carcinoma assessed as tubular injury at 5 mg/kg administered thrice per week for 2 weeks starting from day 7 post tumor implantation by H and E staining based histopathological analysis; format: organism-based; details: in vivo, 336 h
[16] = Toxicity in Swiss albino mouse implanted with mouse solid Ehrlich carcinoma assessed as portal tract inflammation in liver at 5 mg/kg administered thrice per week for 2 weeks starting from day 7 post tumor implantation by H and E staining based histopathological analysis; format: organism-based; details: in vivo, 336 h
[17] = Toxicity in Swiss albino mouse implanted with mouse solid Ehrlich carcinoma assessed as mesangial expansion at 5 mg/kg administered thrice per week for 2 weeks starting from day 7 post tumor implantation by H and E staining based histopathological analysis; format: organism-based; details: in vivo, 336 h
Ehrlich [18] = test: Anticancer activity against mouse solid Ehrlich carcinoma cells implanted in Swiss albino mouse assessed as increase in neutrophil count at 5 mg/kg administered thrice per week for 2 weeks starting from day 7 post tumor implantation by hematological assay (reference value: 55.43 +/- 8.44 %); format: functional
Ehrlich [19] = test: Anticancer activity against mouse solid Ehrlich carcinoma implanted in Swiss albino mouse assessed as reduction in tumor weight at 5 mg/kg administered thrice per week for 2 weeks starting from day 7 post tumor implantation relative to control; format: functional; parameters: scale not given: the % may be the effect or the level left
MCF7 [20] = test: Induction of apoptosis in human MCF7 cells assessed as total apoptotic cells incubated for 48 hrs by Annexin-V/FITC staining based flow cytometry (reference value: 1.73 %); format: functional
Ehrlich [21] = test: Anticancer activity against mouse solid Ehrlich carcinoma implanted in Swiss albino mouse assessed as reduction in tumor weight at 5 mg/kg administered thrice per week for 2 weeks starting from day 7 post tumor implantation relative to DOX; format: functional; parameters: scale not given: the % may be the effect or the level left
MCF7 [22] = test: Cell cycle arrest in human MCF7 cells assessed as accumulation of cells at S phase at 3.1 uM incubated for 48 hrs by PI staining based flow cytometry (reference value: 28.71 %); format: functional
Ehrlich [23] = test: Anticancer activity against mouse solid Ehrlich carcinoma implanted in Swiss albino mouse assessed as reduction in tumor volume at 5 mg/kg administered thrice per week for 2 weeks starting from day 7 post tumor implantation relative to DOX; format: functional; parameters: scale not given: the % may be the effect or the level left
Ehrlich [24] = test: Anticancer activity against mouse solid Ehrlich carcinoma implanted in Swiss albino mouse assessed as reduction in tumor volume at 5 mg/kg administered thrice per week for 2 weeks starting from day 7 post tumor implantation relative to control; format: functional; parameters: scale not given: the % may be the effect or the level left

Q: With `N#Cc1c(NC(=O)CSc2ccc(-c3ccc(F)cc3)nn2)sc2c1CCC2` as the molecule, how does the inhibition [1] read?
A: 10.8%

Q: For `Cc1ccc(-c2ccc(SCC(=O)Nc3sc4c(c3C#N)CCCC4)nn2)cc1`, which inhibition [1] is on record?
A: 49.1%

Q: What about the IC50 (MCF7 [2]) of the same molecule?
A: 34.5 µg/mL (≈ 82.1 µM)

Q: What about the IC50 (A549) of the same molecule?
A: 63.8 µg/mL (≈ 152 µM)

Q: Which Activity (Ehrlich [3]) does the source give for `COc1cccc2c1C(=O)c1c(O)c3c(c(O)c1C2=O)C[C@@](O)(C(=O)CO)C[C@@H]3O[C@H]1C[C@H](N)[C@H](O)[C@H](C)O1` [DOXORUBICIN] here?
A: 7.34 g/dL

Q: What about the Activity (Ehrlich [4]) of the same molecule?
A: 39.16%

Q: What about the Activity (Ehrlich [5]) of the same molecule?
A: 35.71%

Q: And the Activity (Ehrlich [6])?
A: 36.29%

Q: And the Activity [7]?
A: Toxic

Q: And the Activity (Ehrlich [8])?
A: 60.4%

Q: And the Activity (Ehrlich [9])?
A: 48.4%

Q: What about the Activity (Ehrlich [10]) of the same molecule?
A: >90%

Q: And the Activity [11]?
A: Toxic

Q: What about the Activity (Ehrlich [12]) of the same molecule?
A: 8.42%

Q: And the Activity (Ehrlich [13])?
A: 4.94 10^6/ml

Q: What about the Activity (Ehrlich [14]) of the same molecule?
A: 23.43%

Q: And the Activity [15]?
A: Toxic

Q: And the Activity [16]?
A: Non-Toxic

Q: What about the Activity [17] of the same molecule?
A: Toxic

Q: And the Activity (Ehrlich [18])?
A: 54.14%

Q: For `N#Cc1c(NC(=O)CSc2ccc(-c3ccc(F)cc3)nn2)sc2c1CCCC2`, which inhibition [1] is on record?
A: 10.8%

Q: With `N#Cc1c(NC(=O)CSc2ccc(-c3ccccc3)nn2)sc2c1CCC2` as the molecule, how does the inhibition [1] read?
A: 10.8%

Q: For `COc1ccc(-c2ccc(SCC(=O)Nc3sc4c(c3C#N)CCCC4)nn2)cc1`, which inhibition [1] is on record?
A: 10.8%

Q: For `N#Cc1c(NC(=O)CSc2ccc(-c3ccc(Br)cc3)nn2)sc2c1CCC2`, which inhibition [1] is on record?
A: 10.8%

Q: For `N#Cc1c(NC(=O)CSc2ccc(-c3ccccc3)nn2)sc2c1CCCC2`, which inhibition [1] is on record?
A: 10.8%

Q: Which Activity (Ehrlich [3]) does the source give for `Cc1ccc(-c2ccc(SCC(=O)Nc3sc4c(c3C#N)CCC4)nn2)cc1` here?
A: 6.74 g/dL

Q: What about the Activity (Ehrlich [4]) of the same molecule?
A: 36.12%

Q: And the IC50 (MCF7 [2])?
A: 9.47 µg/mL (≈ 23.3 µM)

Q: What about the Activity (Ehrlich [19]) of the same molecule?
A: 74.34%

Q: What about the Activity (Ehrlich [5]) of the same molecule?
A: 28.31%

Q: And the Activity (Ehrlich [6])?
A: 39.14%

Q: And the Activity [7]?
A: Non-Toxic

Q: What about the Activity (MCF7 [20]) of the same molecule?
A: 42.51%

Q: What about the Activity (Ehrlich [8]) of the same molecule?
A: 62.12%

Q: And the Activity (Ehrlich [21])?
A: 8.48%

Q: And the Activity (Ehrlich [9])?
A: 55.54%

Q: What about the Activity (MCF7 [22]) of the same molecule?
A: 42.02%

Q: What about the Activity (Ehrlich [10]) of the same molecule?
A: >90%

Q: What about the Activity [11] of the same molecule?
A: Toxic

Q: What about the IC50 (A549) of the same molecule?
A: 17.1 µg/mL (≈ 42 µM)

Q: And the Activity (Ehrlich [23])?
A: 4.3%

Q: And the Activity (Ehrlich [12])?
A: 9.72%

Q: And the Activity (Ehrlich [13])?
A: 4.53 10^6/ml

Q: What about the Activity (Ehrlich [14]) of the same molecule?
A: 29.77%

Q: And the Activity [15]?
A: Toxic

Q: What about the Activity (Ehrlich [24]) of the same molecule?
A: 62.12%

Q: And the Activity [16]?
A: Toxic

Q: What about the Activity [17] of the same molecule?
A: Toxic

Q: Which inhibition [1] does the source give for `N#Cc1c(NC(=O)CSc2ccc(-c3ccc(Cl)cc3)nn2)sc2c1CCC2` here?
A: 10.8%

Q: With `COc1ccc(-c2ccc(SCC(=O)Nc3sc4c(c3C#N)CCC4)nn2)cc1` as the molecule, how does the inhibition [1] read?
A: 10.8%

Q: With `N#Cc1c(NC(=O)CSc2ccc(-c3ccc(Br)cc3)nn2)sc2c1CCCC2` as the molecule, how does the inhibition [1] read?
A: 10.8%

Q: Which inhibition [1] does the source give for `N#Cc1c(NC(=O)CSc2ccc(-c3ccc(Cl)cc3)nn2)sc2c1CCCC2` here?
A: 10.8%
